Measured values from US6004972A, “Therapeutic process for the treatment of the pathologies of type II diabetes” (The Board of Supervisiors of Louisiana State University and …, priority 1998, dated 1999).
Several values for one entry are separate records, joined by “and”; a condition that tells them apart may be missing. Equal values may be shown once.

Tests used:
[1] = system: circadian rhythms of plasma cortisol and prolactin in adult female pigs; experiment: Circadian plasma cortisol and prolactin levels in pigs given bromocriptine implants; type: in vivo, pig (swine); conditions: for Plasma Cortisol Level: implant 10 mg/pig/day
Procedure: Adult female pigs, six in number, were given bromocryptine implants (10 mg/pig/day) lasting over a period of time while the pigs were subjected to daily periods of daylight and darkness (12:12). […] A control group of six pigs were similarly treated to periods of daylight and darkness except that no bromocryptine was administered to the pigs of the control group. The period of darkness was from 1800 to 0600, and the period of daylight from 0600 to 1800. Daily tests were made of the blood of the pigs at four hour intervals over a 14 day period to determine the plasma cortisol level (μg/dl) and plasma prolactin level […] of both groups. The average for each series of tests made on each group are given as follows: […]

[2] = system: adult female pigs; experiment: Effects of bromocriptine implants on fat stores and plasma triglyceride, glucose and insulin in pigs; type: in vivo, pig (swine)
Procedure: Adult female pigs, six in number, were given bromocryptine implants (10 mg/pig/day) lasting over a period of time while the pigs were subjected to daily periods of daylight and darkness (12:12). […] A control group of six pigs were similarly treated to periods of daylight and darkness except that no bromocryptine was administered to the pigs of the control group. The period of darkness was from 1800 to 0600, and the period of daylight from 0600 to 1800. Daily tests were made of the blood of the pigs at four hour intervals over a 14 day period to determine the plasma cortisol level (μg/dl) and plasma prolactin level […] of both groups. The average for each series of tests made on each group are given as follows:
Notes: Backfat thickness was used as an index in determining fat stores.
Plasma was sampled at 1600, 2000 and 2400 after two weeks of treatment. Each pig of the treatment group and control group was sampled.

[3] = system: symptoms of diabetes; experiment: Oral bromocriptine in a diabetic (Example 2); type: in vivo, human; conditions: 1.25-2.50 mg/day orally just after awakening
Procedure: At the beginning of the treatment, blood glucose concentration was shown by routine testing to be near 250 mg/dl. […] Fasting levels below 120 mg/dl are considered normal.

[4] = system: Type II diabetes; experiment: Oral bromocriptine in a person treated with diabenase (Example 3); type: in vivo, human
Procedure: A person was being treated with a hypoglycemic agent (diabenase) which had reduced the blood glucose of the patient from 250 mg/dl to about 180 mg/dl during one year of treatment. […] Removal of the hypoglycemic agent allowed glucose levels to rise and remain near 100 mg/dl (a normal level) in the succeeding two months.

[5] = system: Type II diabetes; experiment: Oral bromocriptine in a diabetic (Example 4); type: in vivo, human; conditions: parlodel 2.5 mg/day orally, 2.5 months
Procedure: A person weighing nearly 300 pounds was known to be a diabetic but had resisted all previous admonitions for treatment. […] Body weight has dropped 22 pounds and plasma glucose levels decreased to 160 mg/dl.

[6] = system: noninsulin dependent (Type II) diabetes; experiment: Timed oral bromocriptine in fifteen persons with noninsulin dependent (Type II) diabetes (Example 5); type: in vivo, human; conditions: for Body Fat Loss / Plasma Glucose (% initial) / Skinfold Measurements (% initial): p < 0.05
Procedure: The participants were carefully instructed not to alter their daily activity or eating habits during the course of treatment.
Skinfold thickness was measured on the left side of the body by a trained anthropometrist in four regions: biceps, triceps, subscapular, and suprailiac, following the recommendations of the International Biological Program. Because of its frequent use, percent body fat was estimated from the common logarithm of the sum of the four skinfolds, using the equations of Durnin and Rahman and of Siri. […] Skinfold measurements were taken initially and at weekly intervals by the same individual. Blood pressure was also determined at these times. Morning fasting plasma glucose in the diabetic group was determined initially and after 4-8 weeks.

[7] = system: body fat stores; conditions: injections at different times of day; cited from earlier work
[8] = parlodel 1.25-2.5 mg/day orally
[9] = subjects on hypoglycemic drugs (8), 4-8 weeks
[10] = subjects receiving insulin (7), 4-8 weeks

**Q.** With CC(C)C[C@H]1C(=O)N2CCC[C@H]2[C@]2(O)O[C@](NC(=O)[C@@H]3C=C4c5cccc6[nH]c(Br)c(c56)C[C@H]4N(C)C3)(C(C)C)C(=O)N12 [bromocriptine, 2-bromo-alpha-ergocryptine] as the molecule, how does the “phase relationships of the circadian rhythms of plasma corticosteroid and prolactin concentrations” value ([1]; implant) read?
**A.** altered the phase relationships

**Q.** What about the “Plasma Cortisol Level” value ([1]; LD 12:12, time 0400, control 5.5) of the same molecule?
**A.** 3.2 µg/dL

**Q.** What about the “Plasma Cortisol Level” value ([1]; LD 12:12, time 0800, control 4.8) of the same molecule?
**A.** 1.9 µg/dL

**Q.** What about the “Plasma Cortisol Level” value ([1]; LD 12:12, time 1200, control 3.4) of the same molecule?
**A.** 1.5 µg/dL

**Q.** What about the “Plasma Cortisol Level” value ([1]; LD 12:12, time 1600, control 1.6) of the same molecule?
**A.** 3.2 µg/dL

**Q.** What about the “Plasma Cortisol Level” value ([1]; LD 12:12, time 2000, control 1.9) of the same molecule?
**A.** 2.8 µg/dL

**Q.** And the “Plasma Cortisol Level” value ([1]; LD 12:12, time 2400, control 2.7)?
**A.** 3.5 µg/dL

**Q.** What about the Backfat ([2]; 10 mg/day/pig implant, 28 days after treatment) of the same molecule?
**A.** 86 % control

**Q.** And the “Triglyceride (plasma)” value ([2]; 10 mg/day/pig implant, two weeks, sampled 1600, 2000 and 2400, control 52 ± 8)?
**A.** 27 ± 3 mg/dL

**Q.** What about the “Glucose (plasma)” value ([2]; 10 mg/day/pig implant, two weeks, sampled 1600, 2000 and 2400, control 99 ± 5) of the same molecule?
**A.** 86 ± 3 mg/dL

**Q.** And the “reduction in plasma insulin concentration” value ([2]; implant)?
**A.** not statistically significant

**Q.** And the “reduction of body fat stores” value ([2]; implant, 28 day period of treatment)?
**A.** 14%

**Q.** What about the “reduction of plasma glucose levels” value ([2]; implant, early period of darkness (2000-2400)) of the same molecule?
**A.** 13%

**Q.** What about the “reduction of plasma triglyceride concentration” value ([2]; implant, near sunset) of the same molecule?
**A.** 48%

**Q.** And the “reduction of body weight” value [3]?
**A.** about 12%

**Q.** What about the “reduction of indices of body fat” value [3] of the same molecule?
**A.** about 12%

**Q.** And the blood glucose concentration ([3]; successive levels in following weeks, initial near 250 mg/dl)?
**A.** 180 mg/dL and 155 mg/dL and 135 mg/dL and 97 mg/dL and 101 mg/dL

**Q.** What about the blood glucose level ([4]; after removal of hypoglycemic agent, succeeding two months) of the same molecule?
**A.** ~100 mg/dL

**Q.** What about the “reduction of body fat” value [4, 8] of the same molecule?
**A.** about 10%

**Q.** And the “reduction of body weight” value [4, 8]?
**A.** about 10%

**Q.** What about the blood glucose level ([4]; parlodel 1.25-2.5 mg/day orally, about an hour after awakening, with diabenase, 2 weeks, from about 180 mg/dl) of the same molecule?
**A.** 80 mg/dL

**Q.** And the plasma glucose level ([5]; initial near 350 mg/dl)?
**A.** 160 mg/dL

**Q.** And the “drop in body weight” value ([5]; two to three hours after awakening, initial nearly 300 pounds)?
**A.** 22 pounds

**Q.** And the transient anorexic effects ([6]; 1.25 mg for 2-3 days then 2.5 mg daily, oral)?
**A.** did not occur

**Q.** And the “mild nausea, participants” value ([6]; 1.25 mg for 2-3 days then 2.5 mg daily, oral, transient, first few days)?
**A.** < 10%

**Q.** What about the “reductions in body fat” value ([6]; after 6 weeks without food restriction) of the same molecule?
**A.** 4.4 % of the body weight

**Q.** And the “blood glucose concentrations and skinfold measurements” value ([6]; all subjects, 4-8 weeks)?
**A.** reduced in every diabetic subject

**Q.** And the “doses of hypoglycemic drugs and insulin” value ([6]; during bromocriptine treatment)?
**A.** reduced in three other subjects

**Q.** And the “oral hypoglycemic medication discontinued” value ([6]; during bromocriptine treatment)?
**A.** completely discontinued during bromocriptine treatment in three individuals

**Q.** And the “fat loss, average” value ([6]; present study)?
**A.** 1.4 pounds per week

**Q.** And the “Body Fat, final” value ([6]; subjects on hypoglycemic drugs (8), 4-8 weeks, initial 36.5 ± 2.3, p < 0.05)?
**A.** 32.9 ± 2.0 % Body Weight

**Q.** And the “Plasma Glucose, final (fasting)” value ([6]; subjects on hypoglycemic drugs (8), 4-8 weeks, initial 231 ± 19, p < 0.05)?
**A.** 166 ± 19 mg/dL

**Q.** And the “Total Body Weight, final” value ([6]; subjects on hypoglycemic drugs (8), 4-8 weeks, initial 255 ± 21)?
**A.** 253 ± 20 pounds

**Q.** What about the “Loss of Body Weight” value ([6]; subjects on hypoglycemic drugs (8), 4-8 weeks, not statistically significant) of the same molecule?
**A.** -2.4 ± 2.0 pounds

**Q.** What about the “Body Fat Loss” value [6, 9] of the same molecule?
**A.** -10.0 ± 2.2 pounds

**Q.** What about the “Plasma Glucose (% initial)” value [6, 9] of the same molecule?
**A.** 72 ± 6 % initial

**Q.** And the “Skinfold Measurements (% initial)” value [6, 9]?
**A.** 79 % initial

**Q.** What about the “Loss of Body Weight” value [6, 10] of the same molecule?
**A.** -0.4 ± 2.0 pounds

**Q.** And the “Body Fat, final” value ([6]; subjects receiving insulin (7), 4-8 weeks, initial 33.4 ± 2.2, p < 0.05)?
**A.** 31.7 ± 1.7 % Body Weight

**Q.** What about the “Body Fat Loss” value [6, 10] of the same molecule?
**A.** -3.1 ± 0.9 pounds

**Q.** And the “Plasma Glucose (% initial)” value [6, 10]?
**A.** 65 ± 8 % initial

**Q.** What about the “Skinfold Measurements (% initial)” value [6, 10] of the same molecule?
**A.** 84 % initial

**Q.** And the “mean loss of body fat” value ([6]; subjects taking hypoglycemic drugs, 4-8 weeks)?
**A.** 10 pounds

**Q.** What about the “mean reduction in skinfold measurements” value ([6]; subjects taking hypoglycemic drugs, four regions, 4-8 weeks) of the same molecule?
**A.** 21%

**Q.** What about the “reduction of body weight” value ([6]; subjects taking hypoglycemic drugs, not statistically significant) of the same molecule?
**A.** 2.4 pounds per subject

**Q.** And the “decline in total body fat” value ([6]; subjects taking hypoglycemic drugs, within 4 to 8 weeks)?
**A.** 10.7%

**Q.** And the “reduction in % body fat” value ([6]; subjects taking insulin)?
**A.** 5.1

**Q.** What about the “reduction in body fat” value ([6]; subjects taking insulin) of the same molecule?
**A.** 3.1 pounds

**Q.** What about the reduction in skinfold ([6]; subjects taking insulin) of the same molecule?
**A.** 16%

**Q.** And the “reduction of body weight” value ([6]; subjects taking insulin)?
**A.** not at all reduced

**Q.** What about the “blood glucose levels after termination of bromocriptine” value ([6]; three individuals off oral hypoglycemic medication, at least two months after bromocriptine terminated) of the same molecule?
**A.** < 120 mg/dL

**Q.** With CCCNC(=O)NS(=O)(=O)c1ccc(Cl)cc1 [diabenase] as the molecule, how does the blood glucose level ([4]; diabenase alone, one year of treatment, from 250 mg/dl) read?
**A.** about 180 mg/dl

B1: Prolactin: a hormone secreted by the pituitary (protein, UniProt P01236 29-227, looked up)
Prolactin: LPICPGGAARCQVTLRDLFDRAVVLSHYIHNLSSEMFSEFDKRYTHGRGFITKAINSCHTSSLATPEDKEQAQQMNQKDFLSLIVSILRSWNEPLYHLVTEVRGMQEAPEAILSKAVEIEEQTKRLLEGMELIVSQVHPETKENEIYPVWSGLPSLQMADEESRLSAYYNLLHCLRRDSHKIDNYLKLLKCRIIHNNNC
**Q.** With B1 as the molecule, how does the stimulation of fattening [7] read?
**A.** stimulate fattening only when injected at certain times of the day
